Assay results as given in ChEMBL document CHEMBL5154650, “Identification and optimization of biphenyl derivatives as novel tubulin inhibitors targeting colchicine-binding site overcoming multidrug resistance” (Eur J Med Chem, 2022).
Values belong to the compound of their own block, whether it stands above or below them. Active and inactive are the calls of the source. The rule behind the calls is not given here.

Experiments:
[1] = test system: A549; experiment: Antiproliferative activity against human A549 cells measured after 72 hrs by SRB assay; format: functional, cell-based; details: Homo sapiens, A549, 72 h
[2] = Antiproliferative activity against human KB/VCR cells measured after 72 hrs by SRB assay; format: functional, cell-based
[3] = test system: K562; experiment: Antiproliferative activity against human K562 cells measured after 72 hrs by SRB assay; format: functional, cell-based; details: K562, 72 h
[4] = Resistant index, ratio IC50 for KB/VCR cells over IC50 for KB cells; format: functional
[5] = test system: K562/Adr; experiment: Antiproliferative activity against human K562/Adr cells measured after 72 hrs by SRB assay; format: functional, cell-based
[6] = test system: KB-V1; experiment: Antiproliferative activity against human KB-V1 cells measured after 72 hrs by SRB assay; format: functional, cell-based; details: KB-V1, 72 h
[7] = test system: 4T1; experiment: Antitumor activity against mouse 4T1 cells xenografted in female BALB/c mouse assessed as T/C at 25 mg/kg, ip administered every other day for 14 days; format: functional; details: time 14 day
[8] = test system: KB; experiment: Antiproliferative activity against human KB cells measured after 72 hrs by SRB assay; format: functional, cell-based
[9] = biological target: T1, Tubulin (Homo sapiens) (UniProt P68371+Q9H4B7+P0DPH7+P68366+Q13509+Q71U36+P04350+Q3ZCM7+P07437+P68363+Q9BQE3+Q6PEY2+Q13885+Q9BVA1+Q9BUF5); experiment: Inhibition of tubulin polymerization in human A549 cells assessed as disruption of microtubule network at 200 nM measured by DAPI staining method; format: cell-based
[10] = Resistant index, ratio IC50 for KB-V1 cells over IC50 for KB cells; format: functional
[11] = biological target: T1, Tubulin (Homo sapiens); experiment: Inhibition of tubulin (unknown origin) polymerization incubated for 15 mins at 30 uM relative to control; format: protein-complex assay
[12] = Resistant index, ratio IC50 for K562/Adr cells over IC50 for K562 cells; format: functional
[13] = test system: A549; experiment: Induction of cell cycle arrest in human A549 cells assessed as accumulation at G2/M phase at 200 nM measured propidium iodide based flow cytometry analysis; format: functional
[14] = Metabolic stability in human liver microsomes assessed as intrinsic clearance at 1 uM in presence of NADPH measured by LC-MS/MS analysis; format: ADME, Microsome
[15] = test system: KB/VCR; experiment: Antiproliferative activity against human KB/VCR cells at 0.3 to 30 nM measured in presence of 10 uM verapamil after 72 hrs by SRB assay; format: functional, cell-based; details: dose 0.3-30 nM
[16] = biological target: T1, Tubulin (Homo sapiens); experiment: Inhibition of tubulin polymerization in human A549 cells assessed as disruption of microtubule network at 50 nM measured by DAPI staining method; format: cell-based
[17] = biological target: T1, Tubulin (Homo sapiens); experiment: Inhibition of tubulin polymerization in human A549 cells assessed as disruption of microtubule network at 200 nM measured after 24 hrs by DAPI staining method; format: cell-based
[18] = test system: A549; experiment: Induction of cell cycle arrest in human A549 cells assessed as accumulation at G2/M phase at 400 nM measured after 24 hrs by propidium iodide based flow cytometry analysis; format: functional
[19] = test system: A549; experiment: Induction of cell morphological changes in human A549 cells at 400 nM measured after 24 hrs; format: functional, cell-based
[20] = biological target: T1, Tubulin (Homo sapiens); experiment: Inhibition of tubulin polymerization in human A549 cells at 3 to 100 uM; format: cell-based; details: dose 3-100 µM

Structure (SMILES): O=C(c1ccccc1)c1ccc(-c2cccc(C(F)(F)F)c2)cc1
IC50 [1]: 6.54 µM

Structure (SMILES): COc1cc(C#N)cc(-c2cc(OC)c(C(=O)c3ccccc3)cc2OC)c1
IC50 [1]: > 10 µM

Structure (SMILES): COc1cc(OC)c(-c2ccc(C(=O)c3ccccc3)cc2)c(OC)c1
IC50 [1]: > 10 µM

Structure (SMILES): COc1ccc(C(=O)c2ccc(-c3cc(C#N)cc(OC)c3)cc2)cc1
IC50 [1]: > 10 µM

Structure (SMILES): COc1ccccc1-c1ccc(C(=O)c2ccccc2)cc1
IC50 [1]: 2.91 µM

Structure (SMILES): N#Cc1ccc(-c2ccc(C(F)(F)F)cc2)cc1
IC50 [1]: 5.9 µM

Structure (SMILES): COc1cc(C#N)cc(-c2ccc(Cc3ccccc3)cc2)c1
IC50 [1]: > 10 µM

Structure (SMILES): COc1cc2c(c(OC)c1OC)-c1ccc(OC)c(=O)cc1[C@@H](NC(C)=O)CC2 [COLCHICINE]
IC50 [2]: 0.293 µM | CLH [14]: 0.384 mL/min/g | IC50 [3]: 0.102 µM | Ratio IC50 [4]: 16.1 | IC50 [5]: 6.55 µM | IC50 [6]: 1.34 µM | IC50 [8]: 0.0182 µM | Ratio IC50 [10]: 73.5 | Ratio IC50 [12]: 64.4

Structure (SMILES): COc1cc(C#N)cc(-c2ccc(C(=O)c3ccccc3)c(N)c2)c1
Activity [15]: Active | inhibition [16]: Active | inhibition [11]: 75%

Structure (SMILES): COc1cc(C#N)cc(-c2ccc(S(=O)(=O)c3ccccc3)cc2)c1
IC50 [1]: > 10 µM

Structure (SMILES): COc1cccc2c1C(=O)c1c(O)c3c(c(O)c1C2=O)C[C@@](O)(C(=O)CO)C[C@@H]3O[C@H]1C[C@H](N)[C@H](O)[C@H](C)O1.Cl [DOXORUBICIN HYDROCHLORIDE]
IC50 [3]: 0.108 µM | IC50 [5]: 31.2 µM | Ratio IC50 [12]: 287.7

Structure (SMILES): COc1cc(OC)c(-c2ccc(C(=O)c3ccccc3)cc2)cc1OC
IC50 [1]: > 10 µM

Second part, led by results:

IC50 [1]: 0.77 µM
Structure (SMILES): COc1cc(C#N)cc(-c2ccc(C(O)c3ccccc3)cc2)c1 (centres undefined)

IC50 [1]: 0.054 µM
Structure (SMILES): COc1cccc(C(=O)c2ccc(-c3cc(C#N)cc(OC)c3)cc2)c1

IC50 [1]: 0.049 µM
Structure (SMILES): COc1cc(OC)cc(-c2ccc(C(=O)c3ccccc3)c(N)c2)c1

IC50 [1]: 1.03 µM
Structure (SMILES): COc1cc(C#N)cc(-c2ccc(C(=O)c3ccccc3)c(NC(C)=O)c2)c1

IC50 [1]: 1.87 µM
Structure (SMILES): O=C(c1ccccc1)c1ccc(-c2cccc(Cl)c2)cc1

IC50 [3]: 0.144 µM | IC50 [5]: 0.226 µM | IC50 [6]: 0.0361 µM | IC50 [8]: 0.0372 µM | inhibition [9]: Active | inhibition [11]: 36.1% | IC50 [1]: 0.062 µM
Structure (SMILES): COc1cc(C#N)cc(-c2ccc(C(=O)c3ccccc3)cc2)c1
IC50 [2]: 0.0304 µM | Ratio IC50 [4]: 0.8 | T/C [7]: 47.2% | Ratio IC50 [10]: 1 | Ratio IC50 [12]: 1.6 | Activity [13]: 90%

IC50 [1]: 0.932 µM
Structure (SMILES): COc1cccc(-c2ccc(C(=O)c3ccccc3)cc2)c1

IC50 [1]: 0.017 µM
Structure (SMILES): COc1cccc(C(=O)c2ccc(-c3cc(OC)cc(OC)c3)cc2N)c1

IC50 [1]: 0.121 µM
Structure (SMILES): COc1cc(C#N)cc(-c2ccc(C(=O)c3cccc(Cl)c3)cc2)c1

inhibition [17]: Active | IC50 [3]: 0.137 µM | inhibition [20]: Active | IC50 [5]: 0.305 µM | IC50 [6]: 0.0517 µM | IC50 [8]: 0.0527 µM | inhibition [11]: 23.9% | IC50 [1]: 0.094 µM
Structure (SMILES): COc1cc(OC)cc(-c2ccc(C(=O)c3ccccc3)cc2)c1
IC50 [2]: 0.0425 µM | Activity [18]: Active | Activity [19]: Active | Ratio IC50 [4]: 0.8 | Ratio IC50 [10]: 1

IC50 [1]: 1.07 µM
Structure (SMILES): COc1cc(C#N)cc(-c2ccc(C(=O)c3ccc(Cl)cc3)cc2)c1
